Tests used:
Assay in all cases: cells
Format in all cases: functional, cell-based, Homo sapiens
COLO-829 = settings: Homo sapiens, COLO-829
Description: SANGER: Inhibition of human COLO-829 cell growth in a cell viability assay.

DSH1 = settings: Homo sapiens, DSH1;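 further: growth inhibition of human DSH1 cells, measured with a cell viability readout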
Description: SANGER: Inhibition of human DSH1 cell growth in a cell viability assay.

ES6 = settings: Homo sapiens, ES6;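 further: growth inhibition of human ES6 cells, read out with a cell viability assay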
Description: SANGER: Inhibition of human ES6 cell growth in a cell viability assay.

ETK-1 = settings: Homo sapiens, ETK-1;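 further: growth inhibition of human ETK-1 cells, read out with a cell viability assay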
Description: SANGER: Inhibition of human ETK-1 cell growth in a cell viability assay.

EW-13 = settings: Homo sapiens, EW-13;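 further: growth inhibition of EW-13 cells, read out with a cell viability assay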
Description: SANGER: Inhibition of human EW-13 cell growth in a cell viability assay.

EW-24 = settings: Homo sapiens, EW-24;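 further: human EW-24 cancer cell line, growth inhibition read out via a cell viability assay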
Description: SANGER: Inhibition of human EW-24 cell growth in a cell viability assay.

HCC2157 = settings: Homo sapiens, HCC2157;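 further: growth inhibition of the cancer cell line, read out as cell viability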
Description: SANGER: Inhibition of human HCC2157 cell growth in a cell viability assay.

HCE-4 = settings: Homo sapiens, HCE-4;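 further: cell viability assay measuring inhibition of growth in the human HCE-4 cell line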
Description: SANGER: Inhibition of human HCE-4 cell growth in a cell viability assay.

HCE-T = settings: Homo sapiens, HCE-T;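 further: cell viability assay read-out, reporting inhibition of HCE-T cell growth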
Description: SANGER: Inhibition of human HCE-T cell growth in a cell viability assay.

IST-MEL1 = settings: Homo sapiens, IST-MEL1;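 further: growth inhibition of the cell line, read out with a cell viability assay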
Description: SANGER: Inhibition of human IST-MEL1 cell growth in a cell viability assay.

JVM-2 = settings: Homo sapiens, JVM-2;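 further: growth inhibition of JVM-2 cells determined by a cell viability assay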
Description: SANGER: Inhibition of human JVM-2 cell growth in a cell viability assay.

KARPAS-45 = settings: Homo sapiens, KARPAS-45;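 further: inhibition of cell line growth, read out through a viability assay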
Description: SANGER: Inhibition of human KARPAS-45 cell growth in a cell viability assay.

KE-37 = settings: Homo sapiens, KE-37;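 further: growth inhibition of KE-37 cells, read out with a cell viability assay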
Description: SANGER: Inhibition of human KE-37 cell growth in a cell viability assay.

KG-1 = settings: Homo sapiens, KG-1;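 further: growth inhibition of KG-1 cells, read out by a cell viability assay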
Description: SANGER: Inhibition of human KG-1 cell growth in a cell viability assay.

KM-H2 = settings: Homo sapiens, KM-H2;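 further: growth inhibition of KM-H2 cells, read out by a cell viability assay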
Description: SANGER: Inhibition of human KM-H2 cell growth in a cell viability assay.

KNS-81-FD = settings: Homo sapiens, KNS-81-FD;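 further: growth inhibition of KNS-81-FD cells, read out with a cell viability assay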
Description: SANGER: Inhibition of human KNS-81-FD cell growth in a cell viability assay.

KURAMOCHI = settings: Homo sapiens, KURAMOCHI;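 further: growth inhibition of KURAMOCHI cells, read out with a cell viability assay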
Description: SANGER: Inhibition of human KURAMOCHI cell growth in a cell viability assay.

LB771-HNC = settings: Homo sapiens, LB771-HNC;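 further: growth inhibition of LB771-HNC human cells, read out with a cell viability assay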
Description: SANGER: Inhibition of human LB771-HNC cell growth in a cell viability assay.

LS-1034 = settings: Homo sapiens, LS-1034
Description: SANGER: Inhibition of human LS-1034 cell growth in a cell viability assay.

LS-513 = settings: Homo sapiens, LS-513
Description: SANGER: Inhibition of human LS-513 cell growth in a cell viability assay.

LU-134-A = settings: Homo sapiens, LU-134-A
Description: SANGER: Inhibition of human LU-134-A cell growth in a cell viability assay.

MOLT-4 = settings: Homo sapiens, MOLT-4;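 further: growth inhibition of MOLT-4 cells, determined with a cell viability readout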
Description: SANGER: Inhibition of human MOLT-4 cell growth in a cell viability assay.

MS-1 = settings: Homo sapiens, MS-1;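 further: growth inhibition of MS-1 cells, read out by cell viability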
Description: SANGER: Inhibition of human MS-1 cell growth in a cell viability assay.

Mo = settings: Homo sapiens, Mo
Description: SANGER: Inhibition of human Mo-T cell growth in a cell viability assay.

NB10 = settings: Homo sapiens, NB10;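 further: growth inhibition of NB10 cells, read out by a cell viability assay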
Description: SANGER: Inhibition of human NB10 cell growth in a cell viability assay.

NCI-H1395 = settings: Homo sapiens, NCI-H1395;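 further: cell viability assay read-out quantifying reduced proliferation of human NCI-H1395 cells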
Description: SANGER: Inhibition of human NCI-H1395 cell growth in a cell viability assay.

NCI-H1650 = settings: Homo sapiens, NCI-H1650;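 further: growth inhibition of human NCI-H1650 cells measured by a cell viability assay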
Description: SANGER: Inhibition of human NCI-H1650 cell growth in a cell viability assay.

NCI-H1770 = settings: Homo sapiens, NCI-H1770;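 further: growth inhibition of NCI-H1770 cells determined with a viability readout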
Description: SANGER: Inhibition of human NCI-H1770 cell growth in a cell viability assay.

NCI-H82 = settings: Homo sapiens, NCI-H82;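 further: growth inhibition of NCI-H82 cells, measured with a cell viability readout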
Description: SANGER: Inhibition of human NCI-H82 cell growth in a cell viability assay.

NOMO-1 = settings: Homo sapiens, NOMO-1;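 further: growth inhibition of human NOMO-1 cells measured by a cell viability assay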
Description: SANGER: Inhibition of human NOMO-1 cell growth in a cell viability assay.

NOS-1 = settings: Homo sapiens, NOS-1;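 further: growth inhibition of the human NOS-1 cell line, read out with a cell viability assay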
Description: SANGER: Inhibition of human NOS-1 cell growth in a cell viability assay.

OCUB-M = settings: Homo sapiens, OCUB-M;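 further: growth inhibition of the cancer cell line, read out through a cell viability assay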
Description: SANGER: Inhibition of human OCUB-M cell growth in a cell viability assay.

QIMR-WIL = settings: Homo sapiens, QIMR-WIL;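 further: growth inhibition of QIMR-WIL cells, read out with a cell viability assay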
Description: SANGER: Inhibition of human QIMR-WIL cell growth in a cell viability assay.

RPMI-8866 = settings: Homo sapiens, RPMI-8866
Description: SANGER: Inhibition of human RPMI-8866 cell growth in a cell viability assay.

RS4-11 = settings: Homo sapiens, RS4-11;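 further: growth inhibition of RS4-11 cells, read out by a cell viability assay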
Description: SANGER: Inhibition of human RS4-11 cell growth in a cell viability assay.

RXF 393 = settings: Homo sapiens, RXF 393;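 further: growth inhibition of human RXF 393 cells, read out with a cell viability assay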
Description: SANGER: Inhibition of human RXF393 cell growth in a cell viability assay.

SCH = settings: Homo sapiens, SCH;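 further: growth inhibition of human SCH cells, read out in a cell viability assay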
Description: SANGER: Inhibition of human SCH cell growth in a cell viability assay.

SF-268 = settings: Homo sapiens, SF-268;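 further: growth inhibition of SF-268 cells determined with a cell viability assay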
Description: SANGER: Inhibition of human SF268 cell growth in a cell viability assay.

SF-539 = settings: Homo sapiens, SF-539;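 further: Read-out is a cell viability assay, with IC50 reflecting inhibition of cell growth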
Description: SANGER: Inhibition of human SF539 cell growth in a cell viability assay.

SK-MEL-1 = settings: Homo sapiens, SK-MEL-1;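 further: growth inhibition of human SK-MEL-1 cells, read out by a cell viability assay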
Description: SANGER: Inhibition of human SK-MEL-1 cell growth in a cell viability assay.

8-MG-BA = settings: Homo sapiens, 8-MG-BA;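 further: growth inhibition of 8-MG-BA cells, read out with a cell viability assay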
Description: SANGER: Inhibition of human 8-MG-BA cell growth in a cell viability assay.

A4-Fuk = settings: Homo sapiens, A4-Fuk;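 further: growth inhibition of A4-Fuk cells, read out by a cell viability assay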
Description: SANGER: Inhibition of human A4-Fuk cell growth in a cell viability assay.

BB30-HNC = settings: Homo sapiens, BB30-HNC;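 further: growth inhibition of the cultured cell line, read out by a cell viability assay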
Description: SANGER: Inhibition of human BB30-HNC cell growth in a cell viability assay.

BB49-HNC = settings: Homo sapiens, BB49-HNC;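 further: cell viability assay read-out, reported as inhibition of BB49-HNC cell growth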
Description: SANGER: Inhibition of human BB49-HNC cell growth in a cell viability assay.

TE-6 = settings: Homo sapiens, TE-6;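 further: growth inhibition of TE-6 cells, read out with a cell viability assay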
Description: SANGER: Inhibition of human TE-6 cell growth in a cell viability assay.

TGBC1TKB = settings: Homo sapiens, TGBC1TKB;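 further: growth inhibition of TGBC1TKB cells, read out by a cell viability assay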
Description: SANGER: Inhibition of human TGBC1TKB cell growth in a cell viability assay.

U-266 = settings: Homo sapiens, U-266
Description: SANGER: Inhibition of human U-266 cell growth in a cell viability assay.

CAS-1 = settings: Homo sapiens, CAS-1;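 further: growth inhibition of CAS-1 cells, measured with a cell viability assay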
Description: SANGER: Inhibition of human CAS-1 cell growth in a cell viability assay.

COLO-668 = settings: Homo sapiens, COLO-668
Description: SANGER: Inhibition of human COLO-668 cell growth in a cell viability assay.

With Oc1ccc2ccccc2c1SSc1c(O)ccc2ccccc12 the IC50 (COLO-829) was > 32 µM, the IC50 (DSH1) was > 32 µM and the IC50 (ES6) was > 32 µM. For the same compound, the IC50 (ETK-1) was > 32 µM, the IC50 (EW-13) was 4.2 µM and the IC50 (EW-24) was > 32 µM. For the same compound, the IC50 (HCC2157) was > 32 µM, the IC50 (HCE-4) was > 32 µM and the IC50 (HCE-T) was > 32 µM. For the same compound, the IC50 (IST-MEL1) was > 32 µM, the IC50 (JVM-2) was > 32 µM and the IC50 (KARPAS-45) was 12.8 µM. For the same compound, the IC50 (KE-37) was 3.5 µM, the IC50 (KG-1) was > 32 µM and the IC50 (KM-H2) was > 32 µM. For the same compound, the IC50 (KNS-81-FD) was > 32 µM, the IC50 (KURAMOCHI) was > 32 µM and the IC50 (LB771-HNC) was > 32 µM. The IC50 (LS-1034) was > 32 µM, the IC50 (LS-513) was > 32 µM and the IC50 (LU-134-A) was > 32 µM. The IC50 (MOLT-4) was 14 µM, the IC50 (MS-1) was > 32 µM and the IC50 (Mo) was > 32 µM. For the same compound, the IC50 (NB10) was > 32 µM, the IC50 (NCI-H1395) was > 32 µM and the IC50 (NCI-H1650) was > 32 µM. For the same compound, the IC50 (NCI-H1770) was > 32 µM, the IC50 (NCI-H82) was > 32 µM and the IC50 (NOMO-1) was > 32 µM. The IC50 (NOS-1) was 11.7 µM, the IC50 (OCUB-M) was > 32 µM and the IC50 (QIMR-WIL) was 2.91 µM. For the same compound, the IC50 (RPMI-8866) was > 32 µM, the IC50 (RS4-11) was 23.2 µM and the IC50 (RXF 393) was > 32 µM. The IC50 (SCH) was > 32 µM, the IC50 (SF-268) was > 32 µM and the IC50 (SF-539) was > 32 µM. For the same compound, the IC50 (SK-MEL-1) was > 32 µM, the IC50 (8-MG-BA) was > 32 µM and the IC50 (A4-Fuk) was 9.44 µM. The IC50 (BB30-HNC) was > 32 µM, the IC50 (BB49-HNC) was > 32 µM and the IC50 (TE-6) was > 32 µM. For the same compound, the IC50 (TGBC1TKB) was > 32 µM, the IC50 (U-266) was > 32 µM and the IC50 (CAS-1) was > 32 µM. The IC50 (COLO-668) was > 32 µM.

For N#Cc1c(O)c2c(-c3ccc(-c4ccccc4O)cc3)csc2[nH]c1=O, the IC50 (COLO-829) was > 1.02 µM, the IC50 (DSH1) was > 1.02 µM and the IC50 (ES6) was > 1.02 µM. For the same compound, the IC50 (ETK-1) was > 1.02 µM, the IC50 (EW-13) was > 1.02 µM and the IC50 (EW-24) was > 1.02 µM. The IC50 (HCC2157) was 0.105 µM, the IC50 (HCE-4) was > 1.02 µM and the IC50 (HCE-T) was > 1.02 µM. The IC50 (IST-MEL1) was > 1.02 µM, the IC50 (JVM-2) was > 1.02 µM and the IC50 (KARPAS-45) was 0.17 µM. For the same compound, the IC50 (KE-37) was 0.129 µM, the IC50 (KG-1) was 0.409 µM and the IC50 (KM-H2) was 0.424 µM. For the same compound, the IC50 (KNS-81-FD) was > 1.02 µM, the IC50 (KURAMOCHI) was > 1.02 µM and the IC50 (LB771-HNC) was > 1.02 µM. The IC50 (LS-1034) was > 1.02 µM, the IC50 (LS-513) was > 1.02 µM and the IC50 (LU-134-A) was 0.231 µM. For the same compound, the IC50 (MOLT-4) was 0.114 µM, the IC50 (MS-1) was 0.827 µM and the IC50 (Mo) was > 1.02 µM. For the same compound, the IC50 (NB10) was > 1.02 µM, the IC50 (NCI-H1395) was > 1.02 µM and the IC50 (NCI-H1650) was > 1.02 µM. For the same compound, the IC50 (NCI-H1770) was 0.109 µM, the IC50 (NCI-H82) was > 1.02 µM and the IC50 (NOMO-1) was 0.263 µM. The IC50 (NOS-1) was > 1.02 µM, the IC50 (OCUB-M) was > 1.02 µM and the IC50 (QIMR-WIL) was 0.0364 µM. For the same compound, the IC50 (RPMI-8866) was > 1.02 µM, the IC50 (RS4-11) was 0.0857 µM and the IC50 (RXF 393) was > 1.02 µM. The IC50 (SCH) was > 1.02 µM, the IC50 (SF-268) was > 1.02 µM and the IC50 (SF-539) was > 1.02 µM. For the same compound, the IC50 (SK-MEL-1) was > 1.02 µM, the IC50 (8-MG-BA) was > 1.02 µM and the IC50 (A4-Fuk) was > 1.02 µM. The IC50 (BB30-HNC) was > 1.02 µM, the IC50 (BB49-HNC) was > 1.02 µM and the IC50 (TE-6) was > 1.02 µM. The IC50 (TGBC1TKB) was > 1.02 µM, the IC50 (U-266) was 0.405 µM and the IC50 (CAS-1) was 0.193 µM. The IC50 (COLO-668) was > 1.02 µM.

In the case of Cc1ccc(-c2c(C(=O)CCl)n(CCCO)c3ncnc(N)c23)cc1, the IC50 (COLO-829) is reported as > 4 µM, the IC50 (DSH1) is reported as > 4 µM and the IC50 (ES6) is reported as > 4 µM. For the same compound, the IC50 (ETK-1) was > 4 µM, the IC50 (EW-13) was > 4 µM and the IC50 (EW-24) was > 4 µM. The IC50 (HCC2157) was > 4 µM, the IC50 (HCE-4) was > 4 µM and the IC50 (HCE-T) was > 4 µM. The IC50 (IST-MEL1) was > 4 µM, the IC50 (JVM-2) was > 4 µM and the IC50 (KARPAS-45) was > 4 µM. For the same compound, the IC50 (KE-37) was > 4 µM, the IC50 (KG-1) was > 4 µM and the IC50 (KM-H2) was > 4 µM. For the same compound, the IC50 (KNS-81-FD) was > 4 µM, the IC50 (KURAMOCHI) was > 4 µM and the IC50 (LB771-HNC) was > 4 µM. The IC50 (LS-1034) was > 4 µM, the IC50 (LS-513) was > 4 µM and the IC50 (LU-134-A) was > 4 µM. For the same compound, the IC50 (MOLT-4) was > 4 µM, the IC50 (MS-1) was > 4 µM and the IC50 (Mo) was > 4 µM. The IC50 (NB10) was > 4 µM, the IC50 (NCI-H1395) was > 4 µM and the IC50 (NCI-H1650) was > 4 µM. The IC50 (NCI-H1770) was > 4 µM, the IC50 (NCI-H82) was > 4 µM and the IC50 (NOMO-1) was > 4 µM. For the same compound, the IC50 (NOS-1) was > 4 µM, the IC50 (OCUB-M) was > 4 µM and the IC50 (QIMR-WIL) was > 4 µM. The IC50 (RPMI-8866) was > 4 µM, the IC50 (RS4-11) was > 4 µM and the IC50 (RXF 393) was > 4 µM. For the same compound, the IC50 (SCH) was > 4 µM, the IC50 (SF-268) was > 4 µM and the IC50 (SF-539) was > 4 µM. For the same compound, the IC50 (SK-MEL-1) was > 4 µM, the IC50 (8-MG-BA) was > 4 µM and the IC50 (A4-Fuk) was > 4 µM. For the same compound, the IC50 (BB30-HNC) was 1.82 µM, the IC50 (BB49-HNC) was > 4 µM and the IC50 (TE-6) was > 4 µM. For the same compound, the IC50 (TGBC1TKB) was > 4 µM, the IC50 (U-266) was > 4 µM and the IC50 (CAS-1) was > 4 µM. For the same compound, the IC50 (COLO-668) was > 4 µM.

— ChEMBL document CHEMBL1201861, “Genomics of Drug Sensitity in Cancer screening data, Wellcome Trust Sanger Institute”
